Where two headings read alike, the source gives them in different places.
Legend:
[1] = tested on: Aphis gossypii; assay: Test 3: insecticidal effect on Aphis gossypii (mortality rate); type: in vivo
From the text: (§1) The expected efficacies of the combinations of the individual active compounds can be determined using Colby's formula, which is described below [Colby, S. R. “Calculating synergistic and antagonistic responses of herbicide combinations,” Weeds 15, 20-22 (1967)]: Colby's formula: E=A+B−(A×B/100) E is the predicted efficacy (control index) with reference to the untreated control when using the mixture of the active compound X at the concentration x and the active compound Y at the concentration y; A is the efficacy (control index) with respect to the untreated control when using the active compound X at the concentration x; B is the efficacy (control index) with respect to the untreated control when using the active compound […] at the concentration y.
Invention compounds and the existing insecticidal active compounds shown in Table 7 (hereinbelow, the compound names are identified by associated letters of the alphabet) were diluted with water to predetermined concentrations so that they would serve as active ingredients. Cucumber leaves with a diameter of 3 cm were placed on plastic cups filled with 0.5% soft agar and five adult aphids were released to feed on the leaves. After standing overnight, the adult insects were removed and the number of nymph as an offspring was counted; each of the prepared liquid samples of insecticide was sprayed in 0.4 ml portions and two days later, the number of dead insects was countd to calculate the mortality rate. The expected efficacies of the combinations of the individual active compounds were calculated by Colby's formula.

[2] = tested on: Sphaerotheca fuliginea; assay: Test 1: control effect against powdery mildew on cucumber (control index); type: in vivo, Sphaerotheca fuliginea on cucumber (variety: SAGAMI HANJIRO); conditions: individual active compound; for pest or weed control at 0.5 ppm: test concentration 0.5 ppm
From the text: as §1
(§2) Potted young seedlings of cucumber (variety: SAGAMI HANJIRO; in two-leaf stage) were sprayed with invention compounds formulated in accordance with Preparations and the existing antimicrobial active compounds listed in Table 3 (all compounds are identified by associated letters of the alphabet) after they were diluted with water to predetermined concentrations so that they would serve as active compounds; a spray gun was used to provide a spray rate of 15 ml per pot. After air-drying, the seedlings were inoculated with conida of Sphaerotheca fuliginea by spraying a suspension of the conida. Thereafter, the seedlings were cultivated for 14 days in a greenhouse and the percentage of diseased area was investigated for each leaf; based on the result of this investigation, the control index was calculated using the following formula: Control index={(percentage of diseased area on the untreated control−percentage of diseased area on treated sample)/percentage of diseased area on the untreated control}×100

[3] = tested on: Pseudoperonospora cubensis; assay: Control effect against Pseudoperonospora cubensis on cucumber seedlings (control index as in Test 1); type: in vivo; conditions: for pest or weed control at 0.05 ppm: test concentration 0.05 ppm
From the text: as §1, §2
Potted young seedlings of cucumber (variety: SAGAMI HANJIRO; in two-and-a-half leaf stage) were sprayed with invention agri-horticulatural pest control compositions formulated in accordance with Preparations and the existing antimicrobial active compounds listed in Table 5 (all compounds are identified by associated letters of the alphabet) after they were diluted with water to predetermined concentrations so that they would serve as active compounds; a spray gun was used to provide a spray rate of 15 ml per pot. After air-drying, the seedlings were inoculated with conida of Pseudoperonospora cubensis by spraying a suspension of the conida. Immediately thereafter, the seedlings were held for a day under the conditions of 21° C. and 100% humidity. The seedlings were then placed at room temperature and 3 days later, the percentage of diseased area was investigated for each leaf; based on the result of this investigation, the control index was calculated as in Test 1.

[4] = Aphis gossypii, 48 h, individual active compound, test concentration 0.1 ppm, read-out: Observed value Mortality rate
[5] = Pseudoperonospora cubensis, 72 h, individual active compound, read-out: Observed value Control index
[6] = individual active compound, test concentration 0.1 ppm
[7] = individual active compound, test concentration 1 ppm

Compound | pest or weed control at 0.1 ppm [1, 4] [%] | pest or weed control at 0.5 ppm ([2]; Podosphaera fuliginea, 336 h) [%] | pest or weed control at 0.05 ppm [3, 5] [%] | further results
FC(F)c1ccccc1C#CCCNc1ncnc2ccccc12 [compound 100] | 40 | 55 | 42 | –
CC1(C)[C@H](C(=O)O[C@H](C#N)c2cccc(Oc3ccccc3)c2)[C@@H]1/C=C\C(=O)OC(C(F)(F)F)C(F)(F)F [S: Acrinathrin] | – | – | – | Observed value Mortality rate [1, 6]: 35
mancozeb [Ac: Manzeb] | – | – | – | Observed value Control index [3, 7]: 52
CO/C=C(/C(=O)OC)c1ccccc1Oc1cc(Oc2ccccc2C#N)ncn1 [Ea: Azoxystrobin, azoxystrobin] | – | – | – | Control index ([2]; test concentration 100 ppm): 21; Observed value Control index [3, 7]: 45
CC(=O)N1C(=O)N(NCc2cccnc2)Cc2cc(C(F)(C(F)(F)F)C(F)(F)F)ccc21 [U: Pyrifluquinazon, pyrifluquinazon, reference compound] | – | – | – | Observed value Mortality rate ([1]; individual active compound, test concentration 0.01 ppm): 40
FC(F)(F)c1ccccc1C#CCCNc1ncnc2ccccc12 [compound 101] | 36 | 56 | 38 | –
COCC(=O)N(c1c(C)cccc1C)[C@H](C)C(=O)OC [Ba: Metalaxyl M, metalaxyl-M] | – | – | – | Observed value Control index ([3]; individual active compound, test concentration 10 ppm): 35
COP(=O)(NC(C)=O)SC (centres unmarked) [P: Acephate, acephate, reference compound] | – | – | – | pest or weed control at 10 ppm ([1]; Aphis gossypii, 48 h, read-out: Observed value Mortality rate): 47%
CC(C)OC(=O)N[C@H](C(=O)N[C@H](C)c1nc2ccc(F)cc2s1)C(C)C [Jb: Benthiavalicarb-isopropyl, benthiavalicarb] | – | – | – | pest or weed control at 0.5 ppm ([3]; Pseudoperonospora cubensis, 72 h, read-out: Observed value Control index): 12%
COc1ccc(C(=CC(=O)N2CCOCC2)c2ccc(Cl)cc2)cc1OC [Ja: Dimethomorph, dimethomorph] | – | – | – | pest or weed control at 5 ppm ([3]; Pseudoperonospora cubensis, 72 h, individual active compound, test concentration 5 ppm, read-out: Observed value Control index): 21%
FCc1ccccc1C#CCCNc1ncnc2ccccc12 [compound 99] | 44 | 53 | 46 | –
COCc1cc(Cl)ccc1C#CCCNc1ncnc2ccccc12 [compound 140] | 43 | 48 | 45 | –
N#CCNC(=O)c1cnccc1C(F)(F)F [T: Flonicamid, flonicamid, reference compound] | – | – | – | Observed value Mortality rate [1, 7]: 43
OCC1=C(C#CCCNc2ncnc3ccccc23)CCCC1 [compound 390] | 41 | 51 | 38 | –
COCc1cc(F)ccc1C#CCCNc1ncnc2ccccc12 [compound 139] | 41 | 51 | 43 | –
N#Cc1c(Cl)c(Cl)c(Cl)c(C#N)c1Cl [Aa: Chlorothalonil, chlorothalonil] | – | – | – | pest or weed control at 5 ppm ([2]; Podosphaera fuliginea, 336 h, test concentration 5 ppm): 48%; pest or weed control at 0.5 ppm ([3]; Pseudoperonospora cubensis, 72 h, individual active compound, test concentration 0.5 ppm, read-out: Observed value Control index): 49%
FCC1=C(C#CCCNc2ncnc3ccccc23)CCCC1 [compound 391] | 43 | 48 | 41 | –
Cc1c(Br)c2ccc(F)cc2n1S(=O)(=O)c1ncn(S(=O)(=O)N(C)C)n1 [Fc: Amisulbrom, amisulbrom] | – | – | – | Observed value Control index [3, 6]: 37
CCc1nn(C)c(C(=O)NCc2ccc(Oc3ccc(C)cc3)cc2)c1Cl [R: Tolfenpyrad, tolfenpyrad, reference compound] | – | – | – | pest or weed control at 0.5 ppm ([1]; Aphis gossypii, 48 h, individual active compound, test concentration 0.5 ppm, read-out: Observed value Mortality rate): 48%
COCc1ccccc1C#CCCNc1ncnc2ccccc12 [compound 133] | 39 | 49 | 41 | –
COCc1cc(C)ccc1C#CCCNc1ncnc2ccccc12 [compound 145] | 35 | 45 | 37 | –
Cc1ccc(-c2c(Cl)nc(C#N)n2S(=O)(=O)N(C)C)cc1 [Fb: Cyazofamid, cyazofamid] | – | – | – | pest or weed control at 0.1 ppm ([3]; Pseudoperonospora cubensis, 72 h, individual active compound, test concentration 0.1 ppm, read-out: Observed value Control index): 50%
CO/N=C(/C(=O)OC)c1ccccc1COc1ccccc1C [Eb: Kresoxim-methyl, kresoxim-methyl] | – | – | – | pest or weed control at 100 ppm ([2]; Podosphaera fuliginea, 336 h, test concentration 100 ppm): 29%; pest or weed control at 1 ppm ([3]; Pseudoperonospora cubensis, 72 h, individual active compound, test concentration 1 ppm, read-out: Observed value Control index): 42%
C#CCOc1ccc(CCNC(=O)C(OCC#C)c2ccc(Cl)cc2)cc1OC (centres unmarked) [Jc: Mandipropamid, mandipropamid] | – | – | – | Observed value Control index ([3]; individual active compound, test concentration 0.5 ppm): 21
CCNC(=O)NC(=O)/C(C#N)=N/OC [Na: Cymoxanil, cymoxanil] | – | – | – | pest or weed control at 10 ppm ([3]; Pseudoperonospora cubensis, 72 h, individual active compound, test concentration 10 ppm, read-out: Observed value Control index): 45%
O=[N+]([O-])NC1=NCCN1Cc1ccc(Cl)nc1 [Q: Imidacloprid, imidacloprid, reference compound] | – | – | – | pest or weed control at 0.01 ppm ([1]; Aphis gossypii, 48 h, individual active compound, test concentration 0.01 ppm, read-out: Observed value Mortality rate): 50%
